Tests used:
[1] = target: T1, Trifunctional purine biosynthetic protein adenosine-3 (Homo sapiens, UniProt P22102); assay: Compound was evaluated for the ability to inhibit Glycinamide ribonucleotide formyltransferase from Manca cells.; assay type: cell-based
T1 sequence (P22102 whole entry): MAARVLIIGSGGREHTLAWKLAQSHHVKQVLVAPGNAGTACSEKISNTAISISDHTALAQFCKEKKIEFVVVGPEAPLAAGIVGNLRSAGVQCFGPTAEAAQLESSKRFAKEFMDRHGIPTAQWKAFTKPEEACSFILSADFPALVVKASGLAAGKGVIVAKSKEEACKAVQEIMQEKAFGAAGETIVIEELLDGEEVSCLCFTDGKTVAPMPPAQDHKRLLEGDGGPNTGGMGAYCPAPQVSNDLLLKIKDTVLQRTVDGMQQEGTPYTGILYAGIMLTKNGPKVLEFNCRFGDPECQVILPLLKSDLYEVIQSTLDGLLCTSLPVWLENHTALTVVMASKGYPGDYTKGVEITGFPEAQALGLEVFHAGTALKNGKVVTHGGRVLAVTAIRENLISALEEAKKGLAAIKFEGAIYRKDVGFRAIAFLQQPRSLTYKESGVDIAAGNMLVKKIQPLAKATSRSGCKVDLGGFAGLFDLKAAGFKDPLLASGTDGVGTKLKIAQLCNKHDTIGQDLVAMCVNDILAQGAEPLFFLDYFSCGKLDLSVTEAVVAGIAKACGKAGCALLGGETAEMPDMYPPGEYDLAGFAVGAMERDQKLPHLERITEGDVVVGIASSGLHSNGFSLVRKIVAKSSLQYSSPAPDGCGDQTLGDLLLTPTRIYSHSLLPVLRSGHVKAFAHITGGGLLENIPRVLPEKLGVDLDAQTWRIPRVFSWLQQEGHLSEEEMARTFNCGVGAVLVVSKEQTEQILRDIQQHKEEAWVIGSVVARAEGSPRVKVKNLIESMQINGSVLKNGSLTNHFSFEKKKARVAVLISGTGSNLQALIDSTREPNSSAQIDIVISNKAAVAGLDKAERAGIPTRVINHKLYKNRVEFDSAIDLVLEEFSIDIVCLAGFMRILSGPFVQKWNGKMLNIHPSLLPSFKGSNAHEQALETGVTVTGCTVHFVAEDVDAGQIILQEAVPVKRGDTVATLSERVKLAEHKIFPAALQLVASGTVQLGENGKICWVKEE

Manca = assay: Compound was evaluated for the ability to inhibit growth of Manca human lymphoma cells.; assay type: functional, cell-based
Thymidylate synthase [2] = target: Thymidylate synthase (Homo sapiens, UniProt P04818); assay: Compound was evaluated for the ability to inhibit thymidylate synthase from Manca cells.; assay type: cell-based
Chain of Thymidylate synthase (Homo sapiens, UniProt P04818) (P04818 whole entry): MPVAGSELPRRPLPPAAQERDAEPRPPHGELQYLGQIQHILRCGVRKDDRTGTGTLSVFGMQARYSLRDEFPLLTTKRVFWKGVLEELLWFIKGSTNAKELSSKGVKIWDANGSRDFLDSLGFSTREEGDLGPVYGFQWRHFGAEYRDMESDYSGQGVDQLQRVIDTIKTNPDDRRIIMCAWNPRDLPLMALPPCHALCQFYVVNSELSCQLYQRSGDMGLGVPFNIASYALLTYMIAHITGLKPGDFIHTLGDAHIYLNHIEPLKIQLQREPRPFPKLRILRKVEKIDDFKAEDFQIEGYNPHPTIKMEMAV

Thymidylate synthase [3] = target: T2, Thymidylate synthase (Lactobacillus casei, UniProt P00469); assay: Compound was evaluated for the ability to inhibit thymidylate synthase from Lactobacillus casei cells.; parameters: species or system Lacticaseibacillus casei
T2 sequence (P00469 whole entry): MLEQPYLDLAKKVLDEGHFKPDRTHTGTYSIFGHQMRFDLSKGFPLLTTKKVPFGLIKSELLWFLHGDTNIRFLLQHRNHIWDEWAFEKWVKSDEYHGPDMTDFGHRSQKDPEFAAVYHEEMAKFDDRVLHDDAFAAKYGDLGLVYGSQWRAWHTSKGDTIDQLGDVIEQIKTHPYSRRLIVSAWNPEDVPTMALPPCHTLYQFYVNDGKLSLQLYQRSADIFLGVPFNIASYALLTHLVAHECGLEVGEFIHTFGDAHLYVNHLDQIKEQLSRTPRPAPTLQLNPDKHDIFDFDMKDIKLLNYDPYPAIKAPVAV

SMILES: Nc1nc2c(c(=O)[nH]1)C1CN(c3ccc(C(=O)NC(CCC(=O)O)C(=O)O)cc3)CCC1CN2 (centres undefined)
- IC50 [1]: > 20 µM
- IC50 (Manca): > 14 µM
- IC50 (Thymidylate synthase [2]): > 200 µM
- IC50 (Thymidylate synthase [3]): > 100 µM

Source: ChEMBL document CHEMBL1125240, “Synthesis and biological activity of 5,11-methylenetetrahydro-5- deazahomofolic acid” (J Med Chem, 1991)
